PubChem BioAssay (NCI)
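Values below derive from 48-hour exposures of cells grown in 96-well plates, with endpoints linearly interpolated between the two concentrations bracketing the appropriate inhibition level. TGI: concentration producing complete growth inhibition.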

tested on: LOX IMVI melanoma; experiment: NCI-60 cell line screen, 48 h

Row | Compound | TGI [µM]
1 | O=C(/C=C/c1ccccc1Cl)c1ccc(Cl)c(Cl)c1 | 28
2 | S=C1NCCN1 | > 100
3 | C1=CC2C=CC(C=C1)P2c1ccccc1 (centres undefined) | > 100
4 | Cc1cc(=O)[nH]c2cc3oc4ccccc4c3cc12 | > 100

tested on: KM20L2 colon; experiment: NCI-60 cell line screen, 48 h

Row | Compound | TGI [µM]
5 | O=C(/C=C/c1ccccc1Cl)c1ccc(Cl)c(Cl)c1 | 31.1
6 | S=C1NCCN1 | > 100
7 | COc1cc2cnc3c4cc(OC(C)C)c(OC)cc4ccc3c2cc1OC | > 100
8 | CC1CN1P1(N2CC2C)=NP(N2CC2C)(N2CC2C)=NP(N2CC2C)(N2CC2C)=N1 (centres undefined) | > 50
9 | C[n+]1c2ccccc2c(NCC(=O)O)c2ccccc21 | > 100

tested on: HCC-2998 colon; experiment: NCI-60 cell line screen, 48 h

Row | Compound | TGI [µM]
10 | O=C(/C=C/c1ccccc1Cl)c1ccc(Cl)c(Cl)c1 | 28.8
11 | COc1cc2cnc3c4cc(OC(C)C)c(OC)cc4ccc3c2cc1OC | > 100
12 | CC1CN1P1(N2CC2C)=NP(N2CC2C)(N2CC2C)=NP(N2CC2C)(N2CC2C)=N1 (centres undefined) | > 50
13 | C1=CC2C=CC(C=C1)P2c1ccccc1 (centres undefined) | > 100
14 | C[n+]1c2ccccc2c(NCC(=O)O)c2ccccc21 | > 100
15 | Cc1cc(=O)[nH]c2cc3oc4ccccc4c3cc12 | 16.3

tested on: RPMI-8226 leukemia; experiment: NCI-60 cell line screen, 48 h

Row | Compound | TGI [µM]
16 | O=C(/C=C/c1ccccc1Cl)c1ccc(Cl)c(Cl)c1 | > 100
17 | S=C1NCCN1 | > 100
18 | COc1cc2cnc3c4cc(OC(C)C)c(OC)cc4ccc3c2cc1OC | > 100
19 | CC1CN1P1(N2CC2C)=NP(N2CC2C)(N2CC2C)=NP(N2CC2C)(N2CC2C)=N1 (centres undefined) | > 50
20 | C1=CC2C=CC(C=C1)P2c1ccccc1 (centres undefined) | > 100
21 | C[n+]1c2ccccc2c(NCC(=O)O)c2ccccc21 | > 100
22 | Cc1cc(=O)[nH]c2cc3oc4ccccc4c3cc12 | > 100

tested on: SF-295 CNS; experiment: NCI-60 cell line screen, 48 h

Row | Compound | TGI [µM]
23 | O=C(/C=C/c1ccccc1Cl)c1ccc(Cl)c(Cl)c1 | 31.3
24 | S=C1NCCN1 | > 100
25 | COc1cc2cnc3c4cc(OC(C)C)c(OC)cc4ccc3c2cc1OC | > 100
26 | CC1CN1P1(N2CC2C)=NP(N2CC2C)(N2CC2C)=NP(N2CC2C)(N2CC2C)=N1 (centres undefined) | > 50
27 | C1=CC2C=CC(C=C1)P2c1ccccc1 (centres undefined) | > 100
28 | C[n+]1c2ccccc2c(NCC(=O)O)c2ccccc21 | > 100
29 | Cc1cc(=O)[nH]c2cc3oc4ccccc4c3cc12 | > 100

tested on: SF-539 CNS; experiment: NCI-60 cell line screen, 48 h

Row | Compound | TGI [µM]
30 | O=C(/C=C/c1ccccc1Cl)c1ccc(Cl)c(Cl)c1 | 33.1
31 | S=C1NCCN1 | > 100
32 | COc1cc2cnc3c4cc(OC(C)C)c(OC)cc4ccc3c2cc1OC | > 100
33 | CC1CN1P1(N2CC2C)=NP(N2CC2C)(N2CC2C)=NP(N2CC2C)(N2CC2C)=N1 (centres undefined) | > 50
34 | C1=CC2C=CC(C=C1)P2c1ccccc1 (centres undefined) | > 100
35 | C[n+]1c2ccccc2c(NCC(=O)O)c2ccccc21 | > 100
36 | Cc1cc(=O)[nH]c2cc3oc4ccccc4c3cc12 | > 100

tested on: MDA-MB-231 breast; experiment: NCI-60 cell line screen, 48 h

Row | Compound | TGI [µM]
37 | C1=CC2C=CC(C=C1)P2c1ccccc1 (centres undefined) | > 100
38 | Cc1cc(=O)[nH]c2cc3oc4ccccc4c3cc12 | > 100

tested on: T-47D breast; experiment: NCI-60 cell line screen, 48 h

Row | Compound | TGI [µM]
39 | C1=CC2C=CC(C=C1)P2c1ccccc1 (centres undefined) | > 100
40 | Cc1cc(=O)[nH]c2cc3oc4ccccc4c3cc12 | > 100

tested on: OVCAR-3 ovarian; experiment: NCI-60 cell line screen, 48 h

Row | Compound | TGI [µM]
41 | O=C(/C=C/c1ccccc1Cl)c1ccc(Cl)c(Cl)c1 | 28.7
42 | S=C1NCCN1 | > 100
43 | COc1cc2cnc3c4cc(OC(C)C)c(OC)cc4ccc3c2cc1OC | > 100
44 | CC1CN1P1(N2CC2C)=NP(N2CC2C)(N2CC2C)=NP(N2CC2C)(N2CC2C)=N1 (centres undefined) | > 50
45 | C1=CC2C=CC(C=C1)P2c1ccccc1 (centres undefined) | > 100
46 | C[n+]1c2ccccc2c(NCC(=O)O)c2ccccc21 | > 100
47 | Cc1cc(=O)[nH]c2cc3oc4ccccc4c3cc12 | > 89.4

tested on: UO-31 renal; experiment: NCI-60 cell line screen, 48 h

Row | Compound | TGI [µM]
48 | O=C(/C=C/c1ccccc1Cl)c1ccc(Cl)c(Cl)c1 | 30.9
49 | S=C1NCCN1 | > 100
50 | COc1cc2cnc3c4cc(OC(C)C)c(OC)cc4ccc3c2cc1OC | > 100
51 | CC1CN1P1(N2CC2C)=NP(N2CC2C)(N2CC2C)=NP(N2CC2C)(N2CC2C)=N1 (centres undefined) | > 50
52 | C1=CC2C=CC(C=C1)P2c1ccccc1 (centres undefined) | > 100
53 | C[n+]1c2ccccc2c(NCC(=O)O)c2ccccc21 | > 100
54 | Cc1cc(=O)[nH]c2cc3oc4ccccc4c3cc12 | > 100

tested on: TK-10 renal; experiment: NCI-60 cell line screen, 48 h

Row | Compound | TGI [µM]
55 | O=C(/C=C/c1ccccc1Cl)c1ccc(Cl)c(Cl)c1 | 38.8
56 | S=C1NCCN1 | > 100
57 | COc1cc2cnc3c4cc(OC(C)C)c(OC)cc4ccc3c2cc1OC | > 100
58 | CC1CN1P1(N2CC2C)=NP(N2CC2C)(N2CC2C)=NP(N2CC2C)(N2CC2C)=N1 (centres undefined) | > 50
59 | C1=CC2C=CC(C=C1)P2c1ccccc1 (centres undefined) | > 100
60 | C[n+]1c2ccccc2c(NCC(=O)O)c2ccccc21 | > 100
61 | Cc1cc(=O)[nH]c2cc3oc4ccccc4c3cc12 | > 100

tested on: HOP-18 NSCLC; experiment: NCI-60 cell line screen, 48 h

Row | Compound | TGI [µM]
62 | O=C(/C=C/c1ccccc1Cl)c1ccc(Cl)c(Cl)c1 | 32
63 | COc1cc2cnc3c4cc(OC(C)C)c(OC)cc4ccc3c2cc1OC | > 100
64 | CC1CN1P1(N2CC2C)=NP(N2CC2C)(N2CC2C)=NP(N2CC2C)(N2CC2C)=N1 (centres undefined) | > 50
65 | C[n+]1c2ccccc2c(NCC(=O)O)c2ccccc21 | > 100

tested on: NCI-H460 lung; experiment: NCI-60 cell line screen, 48 h

Row | Compound | TGI [µM]
66 | O=C(/C=C/c1ccccc1Cl)c1ccc(Cl)c(Cl)c1 | > 100
67 | COc1cc2cnc3c4cc(OC(C)C)c(OC)cc4ccc3c2cc1OC | > 100
68 | CC1CN1P1(N2CC2C)=NP(N2CC2C)(N2CC2C)=NP(N2CC2C)(N2CC2C)=N1 (centres undefined) | > 50
69 | C1=CC2C=CC(C=C1)P2c1ccccc1 (centres undefined) | > 100
70 | C[n+]1c2ccccc2c(NCC(=O)O)c2ccccc21 | > 100
71 | Cc1cc(=O)[nH]c2cc3oc4ccccc4c3cc12 | > 100

tested on: U251 CNS; experiment: NCI-60 cell line screen, 48 h

Row | Compound | TGI [µM]
72 | O=C(/C=C/c1ccccc1Cl)c1ccc(Cl)c(Cl)c1 | 31.1
73 | S=C1NCCN1 | > 100
74 | COc1cc2cnc3c4cc(OC(C)C)c(OC)cc4ccc3c2cc1OC | > 100
75 | CC1CN1P1(N2CC2C)=NP(N2CC2C)(N2CC2C)=NP(N2CC2C)(N2CC2C)=N1 (centres undefined) | > 50
76 | C1=CC2C=CC(C=C1)P2c1ccccc1 (centres undefined) | > 100
77 | C[n+]1c2ccccc2c(NCC(=O)O)c2ccccc21 | > 100
78 | Cc1cc(=O)[nH]c2cc3oc4ccccc4c3cc12 | > 86.6

tested on: OVCAR-4 ovarian; experiment: NCI-60 cell line screen, 48 h

Row | Compound | TGI [µM]
79 | O=C(/C=C/c1ccccc1Cl)c1ccc(Cl)c(Cl)c1 | 25.5
80 | S=C1NCCN1 | > 100
81 | COc1cc2cnc3c4cc(OC(C)C)c(OC)cc4ccc3c2cc1OC | > 100
82 | CC1CN1P1(N2CC2C)=NP(N2CC2C)(N2CC2C)=NP(N2CC2C)(N2CC2C)=N1 (centres undefined) | > 50
83 | C1=CC2C=CC(C=C1)P2c1ccccc1 (centres undefined) | > 100
84 | C[n+]1c2ccccc2c(NCC(=O)O)c2ccccc21 | > 100
85 | Cc1cc(=O)[nH]c2cc3oc4ccccc4c3cc12 | > 100

tested on: HT29 colon; experiment: NCI-60 cell line screen, 48 h

Row | Compound | TGI [µM]
86 | O=C(/C=C/c1ccccc1Cl)c1ccc(Cl)c(Cl)c1 | 36
87 | S=C1NCCN1 | > 100
88 | COc1cc2cnc3c4cc(OC(C)C)c(OC)cc4ccc3c2cc1OC | > 100
89 | CC1CN1P1(N2CC2C)=NP(N2CC2C)(N2CC2C)=NP(N2CC2C)(N2CC2C)=N1 (centres undefined) | > 50
90 | C1=CC2C=CC(C=C1)P2c1ccccc1 (centres undefined) | > 100
91 | C[n+]1c2ccccc2c(NCC(=O)O)c2ccccc21 | > 100
92 | Cc1cc(=O)[nH]c2cc3oc4ccccc4c3cc12 | > 100

tested on: SN12C renal; experiment: NCI-60 cell line screen, 48 h

Row | Compound | TGI [µM]
93 | O=C(/C=C/c1ccccc1Cl)c1ccc(Cl)c(Cl)c1 | > 100
94 | S=C1NCCN1 | > 100
